Laboratory results published in US5478864A, “Method for disinfection using a 1,n-bis(N^5 -trifluoromethyl-phenyl-N^1 -biguanido)-alkane” (Mitsubishi Materials Corp., priority 1991, dated 1995).
In brackets after ≈: the same amount, converted by molar mass. Where two headings read alike, the source gives them in different places.

Experiments:
[1] = system: Staphylococcus aureus (clin'ly col'ted MRSA); assay: minimum growth inhibition concentration, agar dilution (first MRSA line); format: cell-based
Procedure: (§1) Germicidal activity of the compound prepared in Example 1 (Compound I) was evaluated by the minimum growth inhibition concentration method (based on the standard method stipulated by Japan Society of Chemotherapy) and the phenol coefficient method.
(§2) A portion of the digluconate salt of the compound of Example 1 was dissolved in water and the solution was heated to dryness on a water bath. The dried salt was dissolved in acetic acid (potentiometric titration grade) and the concentration thereof was determined by potentiometric titration using a perchloric acid solution. The gluconate acid salt solution, whose concentration was thus determined, was diluted to predetermined concentrations with sterilized water. Each 1 ml of the solution of each concentration was placed in a Petri dish, 9 ml of Mueller-Hinton agar (supplied by Difco) was added thereto and well mixed. Thus sensitivity test media were prepared. The concentrations of the compound were 200 μg/ml and 2^n times wherein (n=-8 to 2). Separately, microorganism strains indicated in Table 1 were subcultured in propagation media (using Mueller-Hinton broth supplied by Difco) at 37° C. for 24 hours. The microorganism concentration was adjusted to 10^6 /ml. The thus obtained cultures were respectively inoculated on a series of sensitivity measuring culture media using an inoculation rod. […] The results are shown in Table 1 together with the result on chlorhexidine as a control.
(§3) Disinfecting effect of the above-prepared compounds was tested by measurement of minimum growth inhibition concentration and by the test for immediate effect in the same manner as in Example 3.

[2] = system: Staphylococcus aureus (clin'ly col'ted MRSA); assay: minimum growth inhibition concentration, agar dilution (second MRSA line); format: cell-based; details: Mueller-Hinton agar, digluconate, clinically collected MRSA
Procedure: as §1, §2, §3

[3] = system: Escherichia coli IID 951; assay: minimum growth inhibition concentration, agar dilution; format: cell-based
Procedure: as §1, §2
(§4) Compounds of formula I, wherein the trifluoromethyl group is located at the p-position and n is 2, 3, 5, 8 and 11, were prepared starting from ethylene diamine dichloride, 1,3-propane diamine dichloride, 1,5-pentane diamine dichloride, 1,8-octane diamine dichloride or 1,11-undecane diamine dichloride, sodium dicyanamide and 4-trifluoromethyl aniline hydrochloride in accordance with the procedures as described above and minimum growth inhibition concentration (MIC) was determined in the same manner as above.
as §3
(§5) Compounds of formula I, wherein the trifluoromethyl group is located at the m-position and n is 2, 3, 5 and 8, 11 were prepared starting from ethylene diamine dihydrochloride, 1,3-propane diamine dihydrochloride, 1,5-pentane diamine dihydrochloride, 1,8-octane diamine dihydrochloride or 1,11-undecane diamine dihydrochloride, sodium dicyanamide and 3-trifluoromethylaniline hydrochloride in accordance with the procedures of Example 4 and germicidal activity thereof were determined in the same manner.

[4] = system: Pseudomonas aeruginosa IID 1042; assay: as above; format: cell-based; details: Pseudomonas aeruginosa, IID1042, Mueller-Hinton agar, read-out: MIC
Procedure: as §1, §2, §4, §3, §5

[5] = system: Staphylococcus aureus FDA 209-P; assay: as above; format: cell-based; details: FDA209, Mueller-Hinton agar
Procedure: as §1, §2, §4, §3, §5

[6] = system: Serratia marcescens IID 602; assay: as above; format: cell-based
Procedure: as §1, §2, §4, §3, §5

[7] = system: Pseudomonas aeruginosa IID 1042; assay: test for immediate effect (phenol coefficient method); format: cell-based; details: of three runs, conc. 0.03%, 20° C.
Procedure: (§6) Immediate effect of this compound was evaluated in accordance with the phenol coefficient method described in "Directions for Hygienic Tests" compiled by the Ministry of Health and Welfare of Japan. The method is as follows. (1) Culture medium Each 10 ml of the bouillon described below was taken into test tubes and they were sterilized with high pressure steam at 120° C. for 20 minutes. (2) Test method Diluted solutions of a series of concentrations of the sample compound were prepared for each of microorganisms listed in Table 2. Each 10 ml of the solutions was put into an appraisal test tube and the test tubes were placed in a thermostat bath kept at 20° C. Each microorganism was subcultured in the above described bouillon medium for testing disinfectants for three generations (37° C. for 48 hours). Each 1 ml of each culture was placed in each of the above-described series of appraisal test tubes and well mixed. After 2.5, 5, 10 and 15 minutes, 0.1 ml of the content of each appraisal test tube was taken and inoculated onto each portion of the bouillon medium for testing disinfectants. […] Each test was carried out three times. Immediate effect of disinfectants was compared by number of test runs in which microorganism growth was observed. […]

[8] = system: Staphylococcus aureus FDA 209-P; assay: as above; format: cell-based; details: of three runs, conc. 0.0005%, 20° C.
Procedure: as §6

[9] = system: Escherichia coli IID 861; assay: as above; format: cell-based; details: of three runs, conc. 0.001%, 20° C.
Procedure: as §6

[10] = system: Flavobacterium meningosepticum RIMD 0614002; assay: minimum growth inhibition concentration, agar dilution; format: cell-based; details: Elizabethkingia meningoseptica, RIMD0614002; Mueller-Hinton agar; digluconate
Procedure: as §1, §2, §3

[11] = system: Alcaligenes faecalis IPO 13111; assay: as above; format: cell-based; details: IPO13111, Mueller-Hinton agar, digluconate
Procedure: as §1, §2, §3

[12] = system: Achromobacter xylosoxidans RIMD 0101001; assay: as above; format: cell-based; details: RIMD0101001, Mueller-Hinton agar, digluconate
Procedure: as §1, §2, §3

[13] = system: Escherichia coli IID 861; assay: as above; format: cell-based
Procedure: as §1, §2, §3

[14] = system: Proteus vulgaris IID 874; assay: as above; format: cell-based; details: IID874, Mueller-Hinton agar, digluconate
Procedure: as §1, §2, §3

[15] = system: Pseudomonas cepacia (collected Chiba Univ.); assay: as above; format: cell-based; details: Burkholderia cepacia, Mueller-Hinton agar, digluconate
Procedure: as §1, §2, §3

[16] = system: Staphylococcus epidermis IID 866; assay: as above; format: cell-based
Procedure: as §1, §2, §3

[17] = system: Pseudomonas aerugimosa (clinically collected); assay: as above; format: cell-based; details: Mueller-Hinton agar, digluconate
Procedure: as §1, §2, §3

[18] = system: Escherichia coli NIHJ JC-2; assay: as above; format: cell-based
Procedure: as §1, §2, §3

[19] = system: Klebsiella pneumoniae IID 865; assay: as above; format: cell-based
Procedure: as §1, §2, §3

[20] = system: other microorganisms; assay: minimum growth inhibition concentration, other microorganisms of Table 1; format: cell-based; details: against other microorganisms
Procedure: as §1
A portion of the digluconate salt of the compound of Example 1 was dissolved in water and the solution was heated to dryness on a water bath. The dried salt was dissolved in acetic acid (potentiometric titration grade) and the concentration thereof was determined by potentiometric titration using a perchloric acid solution. The gluconate acid salt solution, whose concentration was thus determined, was diluted to predetermined concentrations with sterilized water. Each 1 ml of the solution of each concentration was placed in a Petri dish, 9 ml of Mueller-Hinton agar (supplied by Difco) was added thereto and well mixed. Thus sensitivity test media were prepared. The concentrations of the compound were 200 μg/ml and 2^n times wherein (n=-8 to 2). Separately, microorganism strains indicated in Table 1 were subcultured in propagation media (using Mueller-Hinton broth supplied by Difco) at 37° C. for 24 hours. The microorganism concentration was adjusted to 10^6 /ml. The thus obtained cultures were respectively inoculated on a series of sensitivity measuring culture media using an inoculation rod. […]

[21] = gluconate salt; cited from earlier work
[22] = system: some Gram-negative bacteria, especially Pyocyaneus bacilli; details: cited from earlier work
[23] = system: general bacteria; details: cited from earlier work
[24] = administered to mucous membranes in a conventionally employed concentration; cited from earlier work

Row | SMILES | MIC [2] | MIC [4] | MIC [5] | number of test runs in which microorganism growth was observed ([7]; contact time 2.5 min) | number of test runs in which microorganism growth was observed ([7]; contact time 5.0 min) | number of test runs in which microorganism growth was observed ([7]; contact time 10.0 min) | number of test runs in which microorganism growth was observed ([7]; contact time 15.0 min) | number of test runs in which microorganism growth was observed ([8]; contact time 2.5 min) | number of test runs in which microorganism growth was observed ([8]; contact time 5.0 min) | number of test runs in which microorganism growth was observed ([8]; contact time 10.0 min) | number of test runs in which microorganism growth was observed ([8]; contact time 15.0 min) | number of test runs in which microorganism growth was observed ([9]; contact time 2.5 min) | number of test runs in which microorganism growth was observed ([9]; contact time 5.0 min) | number of test runs in which microorganism growth was observed ([9]; contact time 10.0 min) | number of test runs in which microorganism growth was observed ([9]; contact time 15.0 min) | MIC [10] | MIC [11] | MIC [12] | MIC [14] | MIC [15] | other results
1 | N=C(NCCCCCCNC(=N)NC(=N)Nc1ccc(C(F)(F)F)cc1)NC(=N)Nc1ccc(C(F)(F)F)cc1 [Ex. 1, 1,6-bis(N^5-p-trifluoromethylphenyl-N^1-biguanido)-hexane] | 1.56 µg/mL (≈ 2.72 µM) | 12.5 µg/mL (≈ 21.8 µM) | 1.56 µg/mL (≈ 2.72 µM) | 0 | 0 | 0 | 0 | 0 | 0 | 0 | 0 | 3 | 3 | 2 | 1 | 200 µg/mL (≈ 349 µM) | 6.25 µg/mL (≈ 10.9 µM) | 50 µg/mL (≈ 87.3 µM) | 25 µg/mL (≈ 43.7 µM) | 50 µg/mL (≈ 87.3 µM) | MIC ([1]; Mueller-Hinton agar, digluconate, clinically collected MRSA, first line, read-out: MIC): 6.25 µg/mL (≈ 10.9 µM); MIC ([3]; IID951, Mueller-Hinton agar, IID 951, read-out: MIC): 3.13 µg/mL (≈ 5.47 µM); MIC ([6]; IID602, Mueller-Hinton agar, IID 602, read-out: MIC): 6.25 µg/mL (≈ 10.9 µM); MIC ([13]; IID861, Mueller-Hinton agar, digluconate, IID 861, read-out: MIC): 3.13 µg/mL (≈ 5.47 µM); MIC ([16]; IID866, Mueller-Hinton agar, digluconate, IID 866, read-out: MIC): 1.56 µg/mL (≈ 2.72 µM); MIC [17]: 12.5 µg/mL (≈ 21.8 µM); MIC ([18]; NIHJJC2, Mueller-Hinton agar, digluconate, NIHJ JC-2, read-out: MIC): 3.13 µg/mL (≈ 5.47 µM); MIC ([19]; IID865, Mueller-Hinton agar, digluconate, read-out: MIC): 3.13 µg/mL (≈ 5.47 µM); germicidal effect compared with chlorhexidine [20]: effective at the same level as chlorhexidine
2 | [H]/N=C(\N/C(=N/[H])NCCCCCCNC(=N)NC(=N)Nc1ccc(Cl)cc1)Nc1ccc(Cl)cc1 [CHXD, chlorhexidine, reference compound] | 3.13 µg/mL (≈ 6.19 µM) | 100 µg/mL (≈ 198 µM) | 0.78 µg/mL (≈ 1.54 µM) | 2 | 1 | 0 | 0 | 3 | 1 | 0 | 0 | 3 | 3 | 3 | 3 | 200 µg/mL (≈ 396 µM) | 50 µg/mL (≈ 98.9 µM) | 25 µg/mL (≈ 49.5 µM) | 200 µg/mL (≈ 396 µM) | 100 µg/mL (≈ 198 µM) | solubility in water [21]: high solubility in water; effect against some Gram-negative bacteria, especially Pyocyaneus bacilli [22]: less effective; disinfecting effect [23]: exhibits disinfecting effect on a wide range of general bacteria; shock symptoms [24]: sometimes causes shock symptoms; MIC ([1]; MRSA): 6.25 µg/mL (≈ 12.4 µM); MIC ([3]; IID951): 1.56 µg/mL (≈ 3.09 µM); MIC ([6]; IID602): 6.25 µg/mL (≈ 12.4 µM); MIC ([13]; IID861): 1.56 µg/mL (≈ 3.09 µM); MIC ([16]; IID866): 1.56 µg/mL (≈ 3.09 µM); MIC [17]: 100 µg/mL (≈ 198 µM); MIC ([18]; NIHJJC2): 1.56 µg/mL (≈ 3.09 µM); MIC ([19]; IID865): 6.25 µg/mL (≈ 12.4 µM)
